Among the test systems are OVCAR-8; SF-539; A549; OVCAR-3; HL-60; SF-295; SN12C; NCI-H23; COLO 205; OVCAR-4; TK-10; NCI-H522; HCT-116; U-251; RXF 393; A498; K562; ACHN; MDA-MB-435.
Assay in all cases: DTP human tumour cell line panel, 48 h

Where “and” joins values, the source holds several entries; their conditions need not be identical. Equal values may be shown once.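 A five-concentration, 48-hour dose response in 96-well plates underlies each endpoint, interpolated linearly between surrounding concentrations. GI50: concentration for 50% inhibition of growth.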 Calls of active or inactive are those of the source. Rule as the data show it: active = GI50 up to about 1.1 µM and inactive = higher.

With `COc1ccc(C(=O)CC(=O)C(=O)Nc2ccc(C)c(C)c2)cc1`, the GI50 with OVCAR-8 is > 100 µM (inactive); in the test on SF-539 it was > 100 µM (inactive); with A549, > 91.8 µM (inactive); in the test on OVCAR-3 it was > 100 µM (inactive); in the test with HL-60 it was 10.5 µM (inactive); in the test on SF-295 it was > 100 µM (inactive). Further, the GI50 in the test on SN12C is > 91.6 µM (inactive); in the test on NCI-H23, > 100 µM (inactive); in the test on COLO 205, > 51.9 µM (inactive); in the test with OVCAR-4, 85.5 µM (inactive); in the test with TK-10, > 100 µM (inactive); with NCI-H522, 68.9 µM (inactive). Besides, the GI50 is 43.8 µM (inactive) with HCT-116; 63.4 µM (inactive) in the test on U-251; > 54.5 µM (inactive) in the test with RXF 393; > 100 µM (inactive) in the test with A498; 53.6 µM (inactive) in the test with K562; > 100 µM (inactive) in the test with ACHN.

As for `Cc1cc(=O)[nH]c(-n2[nH]c3c(c2=O)CCCC3)n1`, the GI50 with MDA-MB-435 is > 100 µM (inactive); with SF-539, 88.5 µM (inactive); in the test with A549, 72.1 µM (inactive); in the test with HL-60, 50.5 µM (inactive); with SF-295, 46 µM (inactive); in the test with SN12C, 77.8 µM (inactive). Further, the GI50 in the test with NCI-H23 was 95.9 µM (inactive); in the test on COLO 205, 88.9 µM (inactive); in the test on OVCAR-4, > 100 µM (inactive); in the test on TK-10, > 100 µM (inactive); with NCI-H522, > 100 µM (inactive); with HCT-116, 41.9 µM (inactive). Also, the GI50 in the test on U-251 is 58.5 µM (inactive); in the test with RXF 393, 14.3 µM (inactive); with A498 it was > 100 µM (inactive); with K562 it was 52.2 µM (inactive); with ACHN, 49.4 µM (inactive).

With `CCCCCCC(=O)CC(=O)C(=O)Nc1ccccc1C`, the GI50 in the test on OVCAR-8, in the test with SF-539, in the test with A549, with OVCAR-3, with HL-60 and with SF-295 was > 100 µM (inactive) each time. Also, the GI50 was > 100 µM (inactive) in the test on SN12C; > 100 µM (inactive) with NCI-H23; > 57.1 µM (inactive) in the test on COLO 205; > 100 µM (inactive) with OVCAR-4; > 100 µM (inactive) in the test with TK-10; > 68.5 µM (inactive) in the test with NCI-H522. In addition, the GI50 with HCT-116 is > 100 µM (inactive); in the test on U-251 it was > 89.1 µM (inactive); with RXF 393, > 100 µM (inactive); with A498, > 100 µM (inactive); with K562, > 100 µM (inactive); in the test with ACHN it was > 100 µM (inactive).

With `COc1ccc(-c2c(C3=NCCN3)nnn2-c2ccccc2)cc1`, the GI50 is > 100 µM (inactive) in the test on OVCAR-8; > 100 µM (inactive) with SF-539; > 100 µM (inactive) in the test on A549; > 100 µM (inactive) in the test with OVCAR-3; 67.3 µM (inactive) with HL-60; > 100 µM (inactive) in the test with SF-295. Also, the GI50 is > 100 µM (inactive) with SN12C; > 100 µM (inactive) with NCI-H23; 98.9 µM (inactive) with COLO 205; > 100 µM (inactive) in the test on OVCAR-4; > 100 µM (inactive) with TK-10; > 100 µM (inactive) with NCI-H522. In addition, the GI50 was 99.1 µM (inactive) with HCT-116; > 100 µM (inactive) with U-251; > 100 µM (inactive) in the test on RXF 393; > 100 µM (inactive) in the test with A498; > 100 µM (inactive) in the test on K562; > 100 µM (inactive) with ACHN.

In the case of `CSC1=Nc2ccccc2N=C(c2ccccc2)C1`, the GI50 was 61.7 µM (inactive) with OVCAR-8; > 100 µM (inactive) in the test with SF-539; 80.2 µM (inactive) with A549; 30.7 µM (inactive) with OVCAR-3; 15.3 µM (inactive) in the test with HL-60; > 100 µM (inactive) in the test with SF-295. For the same compound, the GI50 is > 100 µM (inactive) in the test on SN12C; 50.2 µM (inactive) with NCI-H23; 21.2 µM (inactive) in the test with COLO 205; > 100 µM (inactive) in the test with OVCAR-4; 80 µM (inactive) in the test with TK-10; 37.6 µM (inactive) in the test with NCI-H522. In addition, the GI50 was 24.6 µM (inactive) with HCT-116; > 100 µM (inactive) in the test with U-251; 20.4 µM (inactive) with RXF 393; > 100 µM (inactive) in the test on A498; 34.6 µM (inactive) in the test on K562; > 100 µM (inactive) with ACHN.

For the compound `CSC1=C(C#N)C(=O)N(c2ccc(C)cc2)C(=O)C1C#N` (centres undefined), the GI50 in the test with MDA-MB-435, with SF-539, in the test with A549, in the test on OVCAR-3, with HL-60 and in the test with SF-295 was > 100 µM (inactive) in each case. Further, the GI50 with SN12C is > 100 µM (inactive); with NCI-H23, > 100 µM (inactive); in the test on COLO 205, > 100 µM (inactive); in the test on OVCAR-4 it was > 100 µM (inactive); in the test on TK-10, > 100 µM (inactive); in the test on NCI-H522 it was 29.7 µM (inactive). Further, the GI50 in the test on HCT-116 was > 100 µM (inactive); with U-251 it was > 100 µM (inactive); in the test with RXF 393, > 100 µM (inactive); with A498, 82.4 µM (inactive); with K562, > 100 µM (inactive); with ACHN it was > 100 µM (inactive).

`CC(C)(Oc1ccc(/C=C/C(=O)c2ccccc2)cc1)C(=O)Nc1c(Cl)cccc1Cl`: the GI50 in the test with OVCAR-8 is > 10 µM (inactive); with SF-539 it was > 10 µM (inactive); with A549 it was > 10 µM (inactive); with OVCAR-3, 6.95 µM (inactive); with HL-60 it was 14.7 µM (inactive); with SF-295 it was > 10 µM (inactive). The GI50 with SN12C is > 10 µM (inactive); in the test on NCI-H23, 7.33 µM (inactive); in the test on COLO 205, > 10 µM (inactive); in the test with OVCAR-4 it was > 10 µM (inactive); with TK-10 it was > 10 µM (inactive); in the test with NCI-H522, 4.67 µM (inactive). Further, the GI50 in the test on HCT-116 is > 10 µM (inactive); in the test with U-251, 7.14 µM (inactive); in the test with RXF 393, > 10 µM (inactive); in the test on A498 it was 0.524 µM (active); in the test on K562, 17 µM (inactive); with ACHN, > 10 µM (inactive).

As to `Cc1nc(Nc2ccc(Cl)cc2)sc1C(=O)NNC(=O)C(=O)NN`, the GI50 in the test with OVCAR-8 is 32.5 µM (inactive); with SF-539 it was 26.1 µM (inactive); in the test with A549, 21 µM (inactive); in the test on OVCAR-3 it was 21.5 µM (inactive); in the test on HL-60, 17.4 µM (inactive); in the test with SF-295 it was 18.2 µM (inactive). Also, the GI50 with SN12C is 16.1 µM (inactive); with NCI-H23 it was 16.6 µM (inactive); in the test with COLO 205, 20.3 µM (inactive); in the test with OVCAR-4, 18.1 µM (inactive); in the test with TK-10 it was 29.5 µM (inactive); in the test on NCI-H522, 17.2 µM (inactive). Also, the GI50 with HCT-116 was 19.6 µM (inactive); with U-251, 19.1 µM (inactive); in the test with RXF 393, 24.9 µM (inactive); with A498 it was 15.7 µM (inactive); in the test on K562 it was 25.1 µM (inactive); in the test on ACHN, 26.4 µM (inactive).

Regarding `O=[N+]([O-])c1ccc(-n2nnc(C3=NCCN3)c2-c2ccc(Cl)cc2)cc1`, the GI50 in the test on OVCAR-8, in the test with SF-539, in the test with A549, in the test with OVCAR-3, in the test on HL-60 and in the test with SF-295 was > 100 µM (inactive) each time. Besides, the GI50 with SN12C was > 100 µM (inactive); with NCI-H23, > 100 µM (inactive); in the test on COLO 205 it was 51.6 µM (inactive); in the test with OVCAR-4, > 100 µM (inactive); in the test on TK-10 it was 69 µM (inactive); in the test on NCI-H522, > 100 µM (inactive). In addition, the GI50 in the test with HCT-116 is 55.8 µM (inactive); with U-251, > 100 µM (inactive); in the test on RXF 393, 93.3 µM (inactive); with A498, > 100 µM (inactive); in the test on K562, 83.8 µM (inactive); in the test with ACHN, > 100 µM (inactive).

Turning to `CCNC(=O)Nc1ccccn1`, the GI50 in the test on OVCAR-8, with MDA-MB-435, in the test with SF-539, in the test on A549, in the test on OVCAR-3 and in the test on HL-60 was > 100 µM (inactive) in each case. In addition, the GI50 with SF-295, with SN12C, in the test with NCI-H23, in the test with COLO 205, in the test with OVCAR-4 and in the test on TK-10 was > 100 µM (inactive) each time. Besides, the GI50 with NCI-H522, with HCT-116, in the test with U-251, in the test with RXF 393, in the test with A498 and with K562 was > 100 µM (inactive) each time. The GI50 in the test with ACHN was > 100 µM (inactive).

For the compound `NC1=NC(=O)/C(=C2\CCNC(=O)c3[nH]c(Br)cc32)N1` [HYMENIALDISINE], the GI50 was 7.21 µM (inactive) and 10.5 µM (inactive) in the test on OVCAR-8; 5.58 µM (inactive) in the test with MDA-MB-435; > 70.3 µM (inactive) in the test with A549; 1.6 µM (inactive) and 1.66 µM (inactive) in the test with HL-60; > 100 µM (inactive) in the test on SF-295; 19.5 µM (inactive) and 11.3 µM (inactive) in the test with SN12C. Also, the GI50 in the test on NCI-H23 was 80.9 µM (inactive) and 52.7 µM (inactive); in the test on OVCAR-4, 15.3 µM (inactive) and 17.5 µM (inactive); in the test with TK-10, 9.12 µM (inactive); with HCT-116, 7.16 µM (inactive) and 5.57 µM (inactive); in the test on U-251, 26.4 µM (inactive) and 18.6 µM (inactive); in the test with RXF 393 it was 29.7 µM (inactive) and 34.6 µM (inactive). The GI50 is 3.85 µM (inactive) and 4.1 µM (inactive) in the test on K562; 45.3 µM (inactive) in the test on ACHN.

The values above are taken from ChEMBL document CHEMBL1201862, “PubChem BioAssay data set” (2004).
